In brackets after ≈: the same amount, converted by molar mass. Where two headings read alike, the source gives them in different places.
Assays:
E. coli GC 2236 = test: MIC, broth microdilution; settings: Escherichia coli, GC2236, E. coli GC 2236
E. coli GC 2235 = test: MIC, broth microdilution; settings: Escherichia coli, GC2235, E. coli GC 2235
E. coli GC 2233 = test: MIC, broth microdilution; settings: Escherichia coli, GC2233, E. coli GC 2233
E. coli GC 2270 = test: MIC, broth microdilution; settings: Escherichia coli, GC2270, E. coli GC 2270
Protocol: (§1) Antimicrobial susceptibility testing. The in vitro activities of the antibiotics are determined by the broth microdilution method as recommended by the National Committee for Clinical Laboratory Standards (NCCLS) (1). Mueller-Hinton II broth (MHBII)(BBL Cockeysville, Md.) is the medium employed in the testing procedures. Microtiter plates containing serial dilutions of each antimicrobial agent are inoculated with each organism to yield the appropriate density (10^5 CFU/ml) in a 100 μl final volume. The plates are incubated for 18-22 hours at 35° C. in ambient air.
(§2) Representative compounds were first incubated in mouse serum for an hour prior to the in vitro testing against a panel of selected gram-positive and gram-negative bacteria strains. All compounds were also pre-incubated in water for an hour prior to testing as control. Representative compounds of Formula I were incubated in human serum prior to MIC determination.

E. coli GC 2271 = test: MIC, broth microdilution; settings: Escherichia coli, GC2271, E. coli GC 2271
E. coli GC 3226 = test: MIC, broth microdilution; settings: Escherichia coli, GC3226, E. coli GC 3226
E. coli GC 1073 = test: MIC, broth microdilution; settings: Escherichia coli, GC1073, E. coli GC 1073
S. typhimurium GC 2172 = test: MIC, broth microdilution; settings: Salmonella enterica, TYPHIMURIUM, S. typhimurium GC 2172
Protocol: as §1
Representative compounds were first incubated in mouse serum for an hour prior to the in vitro testing against a panel of selected gram-positive and gram-negative bacteria strains. All compounds were also pre-incubated in water for an hour prior to testing as control.

S. aureus GC 1079 = test: MIC, broth microdilution; settings: Staphylococcus aureus, GC1079, S. aureus GC 1079
S. aureus GC 6335 = test: MIC, broth microdilution; settings: Staphylococcus aureus, GC6335, S. aureus GC 6335
Protocol: as §1, §2

S. aureus GC 6469 = test: MIC, broth microdilution; settings: Staphylococcus aureus, GC6469, S. aureus GC 6469
E. faecalis GC 4555 = test: MIC, broth microdilution; settings: Enterococcus faecalis, GC4555, E. faecalis GC 4555
E. faecalis GC 2265 = test: MIC, broth microdilution; settings: Enterococcus faecalis, GC2265, E. faecalis GC 2265
E. faecium GC 4556 = test: MIC, broth microdilution; settings: Enterococcus faecium, GC4556, E. faecium GC 4556
E. faecium GC 2243 = test: MIC, broth microdilution; settings: Enterococcus faecium, GC2243, E. faecium GC 2243
S. pyogenes GC 4563 = test: MIC, broth microdilution; settings: Streptococcus pyogenes, GC4563, S. pyogenes GC 4563
S. agalactiae GC 4564 = test: MIC, broth microdilution; settings: Streptococcus agalactiae, GC4564, S. agalactiae GC 4564
Protocol: as §1, §2

c. albicans GC 3066 = test: MIC, broth microdilution
E. coli = test: Range of MIC for E. coli strains; settings: Escherichia coli
Staph. = test: Range of MIC for Staph. strains, including MRSA; settings: Staphylococcus aureus, MRSA
[1] = c. albicans GC 3066, Water pre-incubation
[2] = 20 h, read-out: Range of MIC, E. coli (Mouse Serum)
[3] = read-out: Range of MIC, E. coli (Water)
[4] = read-out: Range of MIC, E. coli (mouse serum)
[5] = read-out: Range of MIC, E. coli (water)
[6] = read-out: Range of MIC, Staph (Mouse Serum)
[7] = read-out: Range of MIC, Staph (Water)
[8] = read-out: Range of MIC, Staph. (mouse serum)
[9] = read-out: Range of MIC, Staph. (water)

**Q.** Which results are given for `CCCN(CC(=O)Nc1cc(N(C)C)c2c(c1O)C(=O)C1=C(O)[C@]3(O)C(=O)C(C(N)=O)=C(O)[C@@H](N(C)C)[C@@H]3C[C@@H]1C2)C(=O)OCOC(=O)c1ccc(OC)cc1` [Example 6, ({[(2-{[(5aR,6aS,7S,10aS)-9-(aminocarbonyl)-4,7-bis(dimethylamino)-1,8,10a,11-tetrahydroxy-10,12-dioxo-5,5a,6,6a,7,10,10a,12-octahydrotetracen-2-yl]amino}-2-oxoethyl)(propyl)amino]carbonyl}oxy)methyl 4-methoxybenzoate]?
**A.** MIC (E. coli GC 2236; Mouse Serum pre-incubation): 2 µg/mL (≈ 2.56 µM); MIC (E. coli GC 2236; Water pre-incubation): 8 µg/mL (≈ 10.3 µM); MIC (E. coli GC 2235; Mouse Serum pre-incubation): 1 µg/mL (≈ 1.28 µM); MIC (E. coli GC 2235; Water pre-incubation): 8 µg/mL (≈ 10.3 µM); MIC (E. coli GC 2233; Mouse Serum pre-incubation): 2 µg/mL (≈ 2.56 µM); MIC (E. coli GC 2233; Water pre-incubation): 16 µg/mL (≈ 20.5 µM); MIC (E. coli GC 2270; Mouse Serum pre-incubation): 1 µg/mL (≈ 1.28 µM); MIC (E. coli GC 2270; Water pre-incubation): 8 µg/mL (≈ 10.3 µM); MIC (E. coli GC 2271; Mouse Serum pre-incubation): 1 µg/mL (≈ 1.28 µM); MIC (E. coli GC 2271; Water pre-incubation): 8 µg/mL (≈ 10.3 µM); MIC (E. coli GC 3226; Mouse Serum pre-incubation): 2 µg/mL (≈ 2.56 µM); MIC (E. coli GC 3226; Water pre-incubation): 16 µg/mL (≈ 20.5 µM); MIC (E. coli GC 1073; Mouse Serum pre-incubation): 2 µg/mL (≈ 2.56 µM); MIC (E. coli GC 1073; Water pre-incubation): 16 µg/mL (≈ 20.5 µM); MIC (S. typhimurium GC 2172; Mouse Serum pre-incubation): 8 µg/mL (≈ 10.3 µM); MIC (S. typhimurium GC 2172; Water pre-incubation): > 64 µg/mL; MIC (S. aureus GC 1079; Mouse Serum pre-incubation): 2 µg/mL (≈ 2.56 µM); MIC (S. aureus GC 1079; Water pre-incubation): 4 µg/mL (≈ 5.13 µM); MIC (S. aureus GC 6335; Mouse Serum pre-incubation): 0.5 µg/mL (≈ 0.641 µM); MIC (S. aureus GC 6335; Water pre-incubation): 2 µg/mL (≈ 2.56 µM); MIC (S. aureus GC 6469; Mouse Serum pre-incubation): 2 µg/mL (≈ 2.56 µM); MIC (S. aureus GC 6469; Water pre-incubation): 4 µg/mL (≈ 5.13 µM); MIC (E. faecalis GC 4555; Mouse Serum pre-incubation): 1 µg/mL (≈ 1.28 µM); MIC (E. faecalis GC 4555; Water pre-incubation): 4 µg/mL (≈ 5.13 µM); MIC (E. faecalis GC 2265; Mouse Serum pre-incubation): 2 µg/mL (≈ 2.56 µM); MIC (E. faecalis GC 2265; Water pre-incubation): 4 µg/mL (≈ 5.13 µM); MIC (E. faecium GC 4556; Mouse Serum pre-incubation): 1 µg/mL (≈ 1.28 µM); MIC (E. faecium GC 4556; Water pre-incubation): 2 µg/mL (≈ 2.56 µM); MIC (E. faecium GC 2243; Mouse Serum pre-incubation): 0.5 µg/mL (≈ 0.641 µM); MIC (E. faecium GC 2243; Water pre-incubation): 2 µg/mL (≈ 2.56 µM); MIC (S. pyogenes GC 4563; Mouse Serum pre-incubation): 0.25 µg/mL (≈ 0.321 µM); MIC (S. pyogenes GC 4563; Water pre-incubation): 0.25 µg/mL (≈ 0.321 µM); MIC (S. agalactiae GC 4564; Mouse Serum pre-incubation): 0.5 µg/mL (≈ 0.641 µM); MIC (S. agalactiae GC 4564; Water pre-incubation): 0.5 µg/mL (≈ 0.641 µM); MIC (c. albicans GC 3066; Candida albicans, GC3066): > 64 µg/mL; MIC (c. albicans GC 3066; [1]): >64 UG/ML; MIC (E. coli; [2]): 1 to 2 µg/mL (≈ 1.28 to 2.56 µM); MIC (E. coli; [3]): 8 to 64 µg/mL (≈ 10.3 to 82.1 µM); MIC (E. coli; [4]): 1 to 2 µg/mL (≈ 1.28 to 2.56 µM); MIC (E. coli; [5]): 8 to 64 µg/mL (≈ 10.3 to 82.1 µM); MIC (Staph.; [6]): 0.5 to 2 µg/mL (≈ 0.641 to 2.56 µM); MIC (Staph.; [7]): 1 to 4 µg/mL (≈ 1.28 to 5.13 µM); MIC (Staph.; [8]): 0.5 to 2 µg/mL (≈ 0.641 to 2.56 µM); MIC (Staph.; [9]): 1 to 4 µg/mL (≈ 1.28 to 5.13 µM)

**Q.** Which results are given for `CCCN(CC(=O)Nc1cc(N(C)C)c2c(c1O)C(=O)C1=C(O)[C@]3(O)C(=O)C(C(N)=O)=C(O)[C@@H](N(C)C)[C@@H]3C[C@@H]1C2)C(=O)OCOC(=O)C(C)(C)C` [Example 9, ({[(2-{[(5aR,6aS,7S,10aS)-9-(aminocarbonyl)-4,7-bis(dimethylamino)-1,8,10a,11-tetrahydroxy-10,12-dioxo-5,5a,6,6a,7,10,10a,12-octahydrotetracen-2-yl]amino}-2-oxoethyl)(propyl)amino]carbonyl}oxy)methyl pivalate]?
**A.** MIC (E. coli GC 2236; Mouse Serum pre-incubation): 1 µg/mL (≈ 1.37 µM); MIC (E. coli GC 2236; Water pre-incubation): 8 µg/mL (≈ 11 µM); MIC (E. coli GC 2235; Mouse Serum pre-incubation): 0.5 µg/mL (≈ 0.685 µM); MIC (E. coli GC 2235; Water pre-incubation): 4 µg/mL (≈ 5.48 µM); MIC (E. coli GC 2233; Mouse Serum pre-incubation): 0.5 µg/mL (≈ 0.685 µM); MIC (E. coli GC 2233; Water pre-incubation): 4 µg/mL (≈ 5.48 µM); MIC (E. coli GC 2270; Mouse Serum pre-incubation): 0.5 µg/mL (≈ 0.685 µM); MIC (E. coli GC 2270; Water pre-incubation): 4 µg/mL (≈ 5.48 µM); MIC (E. coli GC 2271; Mouse Serum pre-incubation): 0.5 µg/mL (≈ 0.685 µM); MIC (E. coli GC 2271; Water pre-incubation): 8 µg/mL (≈ 11 µM); MIC (E. coli GC 3226; Mouse Serum pre-incubation): 2 µg/mL (≈ 2.74 µM); MIC (E. coli GC 3226; Water pre-incubation): 16 µg/mL (≈ 21.9 µM); MIC (E. coli GC 1073; Mouse Serum pre-incubation): 1 µg/mL (≈ 1.37 µM); MIC (E. coli GC 1073; Water pre-incubation): 8 µg/mL (≈ 11 µM); MIC (S. typhimurium GC 2172; Mouse Serum pre-incubation): 8 µg/mL (≈ 11 µM); MIC (S. typhimurium GC 2172; Water pre-incubation): > 64 µg/mL; MIC (S. aureus GC 1079; Mouse Serum pre-incubation): 2 µg/mL (≈ 2.74 µM); MIC (S. aureus GC 1079; Water pre-incubation): 1 µg/mL (≈ 1.37 µM); MIC (S. aureus GC 6335; Mouse Serum pre-incubation): 0.25 µg/mL (≈ 0.343 µM); MIC (S. aureus GC 6335; Water pre-incubation): 0.5 µg/mL (≈ 0.685 µM); MIC (S. aureus GC 6469; Mouse Serum pre-incubation): 1 µg/mL (≈ 1.37 µM); MIC (S. aureus GC 6469; Water pre-incubation): 2 µg/mL (≈ 2.74 µM); MIC (E. faecalis GC 4555; Mouse Serum pre-incubation): 0.5 µg/mL (≈ 0.685 µM); MIC (E. faecalis GC 4555; Water pre-incubation): 2 µg/mL (≈ 2.74 µM); MIC (E. faecalis GC 2265; Mouse Serum pre-incubation): 1 µg/mL (≈ 1.37 µM); MIC (E. faecalis GC 2265; Water pre-incubation): 2 µg/mL (≈ 2.74 µM); MIC (E. faecium GC 4556; Mouse Serum pre-incubation): 0.25 µg/mL (≈ 0.343 µM); MIC (E. faecium GC 4556; Water pre-incubation): 0.5 µg/mL (≈ 0.685 µM); MIC (E. faecium GC 2243; Mouse Serum pre-incubation): 0.25 µg/mL (≈ 0.343 µM); MIC (E. faecium GC 2243; Water pre-incubation): 0.5 µg/mL (≈ 0.685 µM); MIC (S. pyogenes GC 4563; Mouse Serum pre-incubation): < 0.06 µg/mL; MIC (S. pyogenes GC 4563; Water pre-incubation): < 0.06 µg/mL; MIC (S. agalactiae GC 4564; Mouse Serum pre-incubation): 0.12 µg/mL (≈ 0.164 µM); MIC (S. agalactiae GC 4564; Water pre-incubation): 0.25 µg/mL (≈ 0.343 µM); MIC (c. albicans GC 3066; Candida albicans, GC3066): > 64 µg/mL; MIC (c. albicans GC 3066; [1]): >64 UG/ML; MIC (E. coli; [2]): 0.5 to 2 µg/mL (≈ 0.685 to 2.74 µM); MIC (E. coli; [3]): 4 to 64 µg/mL (≈ 5.48 to 87.7 µM); MIC (E. coli; [4]): 0.5 to 2 µg/mL (≈ 0.685 to 2.74 µM); MIC (E. coli; [5]): 4 to 64 µg/mL (≈ 5.48 to 87.7 µM); MIC (Staph.; [6]): 0.06 to 2 µg/mL (≈ 0.0822 to 2.74 µM); MIC (Staph.; [7]): 0.12 to 2 µg/mL (≈ 0.164 to 2.74 µM); MIC (Staph.; [8]): 0.06 to 1 µg/mL (≈ 0.0822 to 1.37 µM); MIC (Staph.; [9]): 0.12 to 2 µg/mL (≈ 0.164 to 2.74 µM)

— patent US20070049564A1 (Wyeth, priority 2005, published 2007)
